For this experiment, the target named is T1, hTG2 (Homo sapiens, UniProt P21980).
T1 sequence (P21980 1-687): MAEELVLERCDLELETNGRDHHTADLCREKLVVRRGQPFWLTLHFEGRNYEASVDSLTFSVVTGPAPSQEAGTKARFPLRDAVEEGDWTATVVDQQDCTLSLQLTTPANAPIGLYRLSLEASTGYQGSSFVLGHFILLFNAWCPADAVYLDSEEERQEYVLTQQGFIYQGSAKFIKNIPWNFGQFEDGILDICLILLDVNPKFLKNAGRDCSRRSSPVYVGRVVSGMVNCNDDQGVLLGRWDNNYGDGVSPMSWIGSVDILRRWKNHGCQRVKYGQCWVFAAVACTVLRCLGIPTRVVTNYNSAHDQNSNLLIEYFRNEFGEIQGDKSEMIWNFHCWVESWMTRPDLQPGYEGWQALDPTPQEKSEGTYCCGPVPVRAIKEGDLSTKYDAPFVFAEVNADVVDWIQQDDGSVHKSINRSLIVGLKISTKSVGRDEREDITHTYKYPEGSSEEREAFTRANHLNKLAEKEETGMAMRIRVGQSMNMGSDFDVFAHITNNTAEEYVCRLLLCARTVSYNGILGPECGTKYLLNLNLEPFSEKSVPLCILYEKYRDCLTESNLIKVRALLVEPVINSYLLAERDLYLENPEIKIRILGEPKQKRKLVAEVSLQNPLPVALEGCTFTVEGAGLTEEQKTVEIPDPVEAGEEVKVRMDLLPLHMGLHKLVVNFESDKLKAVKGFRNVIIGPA
In words: biochemical. The protocol: The ability of the compounds to inhibit TG2 transamidase activity and the kinetics of TG2 inhibition were investigated using a colorimetric activity assay, as follows:
Colorimetric transamidase activity assay. The activities of hTG1, hTG2 and hTG6 were measured via a colorimetric assay using the chromogenic substrate Cbz-Glu(γ-p-nitrophenyl ester)Gly (AL5), as described (Leblanc, A. et al., “Kinetic studies of guinea pig liver transglutaminase reveal a general-base-catalyzed deacylation mechanism.” Biochemistry 2001, 40 (28), 8335-8342). Assays were conducted at 25° C. in 50 mM MOPS buffer (pH 6.95) containing 7.5 mM CaCl2. […] The substrate AL5 was prepared in as a stock solution in DMSO such that the final concentration of this co-solvent was constant at 2.5% v/v. Stock solutions of the inhibitors were made in water ranging in concentration from 100-500 μM. The reaction was initiated with the addition of enzyme, 0.10 μM hTG1, 0.25 μM hTG2 (4.6 mU/mL) or 0.32 μM hTG6. Formation of hydrolysis product, p-nitrophenolate (pNP), was monitored at 405 nm in a polystyrene 96-well microplate using a BioTek Synergy 4 plate reader. The observed first-order rate constants of inactivation (kobs) were determined via non-linear regression fit to a mono-exponential model (Eqn 1) of absorbance versus time curves. These rate constants (kobs) were in turn fit to a saturation kinetics model (Eqn 2), by non-linear regression, providing the kinetic parameters kinact and KI, as previously described by Stone and Hofsteenge (Stone, S. R. and Hofsteenge, J., “Specificity of activated human protein C.” Biochem. J. 1985, 230 (2), 497-502). […] Experiments were completed in triplicate at minimum.
Fitting of this time-dependent inactivation to a monoexponential equation gave first-order rate constants, kobs. […] In some cases, the kinetic data were fitted to a linear double reciprocal equation.

The mark [1] stands for this setting: fit to saturation kinetics model, 25° C., pH 6.95, 100 μM AL5, read-out: KI (converted).
Setting [2] is: fit to saturation kinetics model, 25° C., pH 6.95, 100 μM AL5, read-out: kinact (converted).
Where [3] appears, read: fit to saturation kinetics model, 25° C., pH 6.95, 100 μM AL5, read-out: kinact/KI (converted).
The mark [4] stands for this setting: values determined using a double-reciprocal analysis, read-out: KI (converted).
[5] abbreviates: values determined using a double-reciprocal analysis, read-out: kinact (converted).
Setting [6] is: values determined using a double-reciprocal analysis, read-out: kinact/KI (converted).

SMILES strings stand for the structures. Where two headings read alike, the source gives them in different places.

As for `C=CC(=O)NCCCC[C@H](NC(=O)c1cccc(F)c1)C(=O)N1CCN(C(=O)c2cccc3ccccc23)CC1` [Inhibitor 63, (S)-N-(1-(4-(1-naphthoyl)piperazin-1-yl)-6-acrylamido-1-oxohexan-2-yl)-3-fluorobenzamide], the Ki (usually the dissociation constant of the complex between target and ligand, obtained from inhibition or displacement) by setting is: under setting [1], 13.4 ± 3.5 µM; under setting [4], 9.9 µM. Also, the kinact (commonly the maximal first-order rate at which the target is inactivated) was 0.0107 s⁻¹ under setting [2] and 0.0085 s⁻¹ under setting [5]. The kinact/KI was 797 M⁻¹ s⁻¹ under setting [3] and 860 M⁻¹ s⁻¹ under setting [6].
`C=CC(=O)NCCCC[C@H](NC(=O)C(C)(C)C)C(=O)N1CCN(C(=O)c2cccc3ccccc23)CC1` [Inhibitor 37, (S)-N-(6-(4-(1-naphthoyl)piperazin-1-yl)-6-oxo-5-pivalamidohexyl)acrylamide]: the inhibition constant (Ki) under setting [1] is 8.8 ± 3.6 µM. The kinact under setting [2] is 0.00817 s⁻¹. Under setting [3], the kinact/KI is 937 M⁻¹ s⁻¹.
Taken in the same sequence, the figures for `C=CC(=O)NCCCC[C@H](NC(=O)Cc1ccc(F)cc1F)C(=O)N1CCN(C(=O)c2cccc3ccccc23)CC1` [Inhibitor 80, (S)-N-(6-(4-(1-naphthoyl)piperazin-1-yl)-5-(2-(2,4-difluorophenyl)acetamido)-6-oxohexyl)acrylamide] were 2.8 ± 0.9 µM, 0.0103 s⁻¹ and 3730 M⁻¹ s⁻¹.
Taken in the same sequence, the figures for `C=CC(=O)NCCCC[C@H](NC(=O)c1nccn1C)C(=O)N1CCN(C(=O)c2cccc3ccccc23)CC1` [Inhibitor 21, (S)-N-(1-(4-(1-naphthoyl)piperazin-1-yl)-6-acrylamido-1-oxohexan-2-yl)-1-methyl-1H-imidazole-2-carboxamide] were 15.7 ± 4.5 µM, 0.003 s⁻¹ and 192 M⁻¹ s⁻¹.
The like results for `C=CC(=O)NCCCC[C@H](NC(=O)Cc1ccccc1OC)C(=O)N1CCN(C(=O)c2cccc3ccccc23)CC1` [Inhibitor 75, (S)-N-(6-(4-(1-naphthoyl)piperazin-1-yl)-5-(2-(2-methoxyphenyl)acetamido)-6-oxohexyl)acrylamide] were, in that order, 4.6 ± 2.9 µM, 0.0233 s⁻¹ and 4980 M⁻¹ s⁻¹.
In the case of `C=CC(=O)NCCCC[C@H](NC(=O)c1cccc2ccccc12)C(=O)N1CCN(C(=O)c2cccc3ccccc23)CC1` [Inhibitor 66, (S)-N-(1-(4-(1-naphthoyl)piperazin-1-yl)-6-acrylamido-1-oxohexan-2-yl)-1-naphthamide], the Ki is 9.3 µM, the kinact is 0.00433 s⁻¹ and the kinact/KI was 458 M⁻¹ s⁻¹. In addition, under setting [1], the Ki is 20.3 ± 5.1 µM. The kinact/KI (pH 6.95) was 335 M⁻¹ s⁻¹.
On to `C=CC(=O)NCCCC[C@H](NS(C)(=O)=O)C(=O)N1CCN(C(=O)c2cccc3ccccc23)CC1` [Inhibitor 91, (S)-N-(6-(4-(1-naphthoyl)piperazin-1-yl)-5-(methylsulfonamido)-6-oxohexyl)acrylamide], for which the Ki under setting [1] is 25.3 ± 7.1 µM. Moreover, the kinact under setting [2] was 0.0095 s⁻¹. The kinact/KI under setting [3] was 377 M⁻¹ s⁻¹.
The like results for `C=CC(=O)NCCCC[C@H](NC(=O)c1ccc2ccccc2c1)C(=O)N1CCN(C(=O)c2cccc3ccccc23)CC1` [Inhibitor 65, (S)-N-(1-(4-(1-naphthoyl)piperazin-1-yl)-6-acrylamido-1-oxohexan-2-yl)-2-naphthamide] were, in that order, 8 ± 1.8 µM, 0.00483 s⁻¹ and 608 M⁻¹ s⁻¹.
The like results for `C=CC(=O)NCCCC[C@H](NC(=O)c1cn(C)cn1)C(=O)N1CCN(C(=O)c2cccc3ccccc23)CC1` [Inhibitor 22, (S)-N-(1-(4-(1-naphthoyl)piperazin-1-yl)-6-acrylamido-1-oxohexan-2-yl)-1-methyl-1H-imidazole-4-carboxamide] were, in that order, 22.3 ± 5 µM, 0.00467 s⁻¹ and 210 M⁻¹ s⁻¹.
In the case of `C=CC(=O)NCCCC[C@H](NC(=O)c1ccccc1F)C(=O)N1CCN(C(=O)c2cccc3ccccc23)CC1` [Inhibitor 62, (S)-N-(1-(4-(1-naphthoyl)piperazin-1-yl)-6-acrylamido-1-oxohexan-2-yl)-2-fluorobenzamide], the Ki under setting [1] was 10 ± 2.6 µM. For the same compound, under setting [2], the inactivation rate constant (kinact) was 0.0065 s⁻¹. The kinact/KI under setting [3] was 657 M⁻¹ s⁻¹.
Consider `C=CC(=O)NCCCC[C@H](NS(=O)(=O)c1ccccc1)C(=O)N1CCN(C(=O)c2cccc3ccccc23)CC1` [Inhibitor 89, (S)-N-(6-(4-(1-naphthoyl)piperazin-1-yl)-6-oxo-5-(phenylsulfonamido)hexyl)acrylamide], for which the Ki under setting [4] is 88.8 ± 6.7 µM. In addition, under setting [5], the kinact was 0.0105 s⁻¹. Besides, under setting [6], the kinact/KI was 118 M⁻¹ s⁻¹.
In the case of `C=CC(=O)NCCCC[C@H](NC(=O)c1ccc(F)cc1)C(=O)N1CCN(C(=O)c2cccc3ccccc23)CC1` [Inhibitor 64, (S)-N-(1-(4-(1-naphthoyl)piperazin-1-yl)-6-acrylamido-1-oxohexan-2-yl)-4-fluorobenzamide], the Ki reads like this: under setting [1], 16.2 ± 7.5 µM; under setting [4], 11.6 µM. The kinact was 0.015 s⁻¹ under setting [2] and 0.0117 s⁻¹ under setting [5]. For the same compound, the kinact/KI runs as follows: under setting [3], 923 M⁻¹ s⁻¹; under setting [6], 1010 M⁻¹ s⁻¹.
In the case of `C=CC(=O)NCCCC[C@H](NC(=O)C(C)C)C(=O)N1CCN(C(=O)c2cccc3ccccc23)CC1` [Inhibitor 39, (S)-N-(6-(4-(1-naphthoyl)piperazin-1-yl)-5-isobutyramido-6-oxohexyl)acrylamide], the Ki under setting [1] was 9.9 ± 1.4 µM. Further, the kinact under setting [2] was 0.0108 s⁻¹. The kinact/KI under setting [3] is 1080 M⁻¹ s⁻¹.
With `C=CC(=O)NCCCC[C@H](NC(=O)c1ccccn1)C(=O)N1CCN(C(=O)c2cccc3ccccc23)CC1` [Inhibitor 18, (S)-N-(1-(4-(1-Naphthoyl)piperazin-1-yl)-6-acrylamido-1-oxohexan-2-yl)picolinamide], the Ki under setting [4] is 41.4 ± 3.8 µM. Under setting [5], the kinact was 0.0065 s⁻¹. The kinact/KI under setting [6] is 160 M⁻¹ s⁻¹.
Consider `C=CC(=O)NCCCC[C@H](NC(=O)Cc1ccccc1C(F)(F)F)C(=O)N1CCN(C(=O)c2cccc3ccccc23)CC1` [Inhibitor 81, (S)-N-(6-(4-(1-naphthoyl)piperazin-1-yl)-5-(2-(2-trifluoromethylphenyl)acetamido)-6-oxohexyl)acrylamide], for which the Ki under setting [1] was 10.1 ± 3.1 µM. Moreover, under setting [2], the maximal inactivation rate constant (kinact) was 0.0167 s⁻¹. The kinact/KI under setting [3] was 1670 M⁻¹ s⁻¹.
For `C=CC(=O)NCCCC[C@H](NC(C)=O)C(=O)N1CCN(C(=O)c2cccc3ccccc23)CC1` [Inhibitor 41, (S)-N-(6-(4-(1-naphthoyl)piperazin-1-yl)-5-acetamido-6-oxohexyl)acrylamide], the kinact was 0.0242 s⁻¹ and the kinact/KI was 735 M⁻¹ s⁻¹. Further, under setting [4], the Ki was 33 ± 14.5 µM.
Consider `C=CC(=O)NCCCC[C@H](NC(=O)CCCc1ccccc1)C(=O)N1CCN(C(=O)c2cccc3ccccc23)CC1` [Inhibitor 69, (S)-N-(1-(4-(1-naphthoyl)piperazin-1-yl)-6-acrylamido-1-oxohexan-2-yl)-4-phenylbutanamide], for which the Ki under setting [1] is 5.3 ± 0.6 µM. The kinact under setting [2] is 0.0035 s⁻¹. Moreover, under setting [3], the kinact/KI is 660 M⁻¹ s⁻¹.
The like results for `C=CC(=O)NCCCC[C@H](NC(=O)C1CCCCC1)C(=O)N1CCN(C(=O)c2cccc3ccccc23)CC1` [Inhibitor 35, (S)-N-(1-(4-(1-naphthoyl)piperazin-1-yl)-6-acrylamido-1-oxohexan-2-yl)cyclohexanecarboxamide] were, in that order, 9.9 ± 1.3 µM, 0.0055 s⁻¹ and 560 M⁻¹ s⁻¹.
As to `C=CC(=O)NCCCC[C@H](NC(=O)Cc1cccc(F)c1)C(=O)N1CCN(C(=O)c2cccc3ccccc23)CC1` [Inhibitor 71, (S)-N-(6-(4-(1-naphthoyl)piperazin-1-yl)-5-(2-(3-fluorophenyl)acetamido)-6-oxohexyl)acrylamide], under setting [1], the inhibition constant Ki was 4.9 ± 0.5 µM. Besides, the kinact under setting [2] was 0.0125 s⁻¹. In addition, the kinact/KI under setting [3] is 2580 M⁻¹ s⁻¹.

(Values after patent US20240383869A1, “ARYLACETYL INHIBITORS OF TG2 AND USES THEREOF” (UNIVERSITY OF OTTAWA, priority 2021, published 2024).)
